Results on 68 molecules are retold here after US20170066759A1, “AROMATIC 5-MEMBERED HETEROCYCLIC DERIVATIVE HAVING TRPV4-INHIBITING ACTIVITY” (Shionogi & Co., Ltd., priority 2012, published 2017).

Some results are limits rather than exact numbers.

For one assay, the target named is T1, human TRPV4 (hTRPV4/CHO cells) (Homo sapiens, UniProt Q9HBA0).
T1 construct: expressed in transfected cells; host or cells: CHO-K1
T1 sequence (Q9HBA0 whole entry): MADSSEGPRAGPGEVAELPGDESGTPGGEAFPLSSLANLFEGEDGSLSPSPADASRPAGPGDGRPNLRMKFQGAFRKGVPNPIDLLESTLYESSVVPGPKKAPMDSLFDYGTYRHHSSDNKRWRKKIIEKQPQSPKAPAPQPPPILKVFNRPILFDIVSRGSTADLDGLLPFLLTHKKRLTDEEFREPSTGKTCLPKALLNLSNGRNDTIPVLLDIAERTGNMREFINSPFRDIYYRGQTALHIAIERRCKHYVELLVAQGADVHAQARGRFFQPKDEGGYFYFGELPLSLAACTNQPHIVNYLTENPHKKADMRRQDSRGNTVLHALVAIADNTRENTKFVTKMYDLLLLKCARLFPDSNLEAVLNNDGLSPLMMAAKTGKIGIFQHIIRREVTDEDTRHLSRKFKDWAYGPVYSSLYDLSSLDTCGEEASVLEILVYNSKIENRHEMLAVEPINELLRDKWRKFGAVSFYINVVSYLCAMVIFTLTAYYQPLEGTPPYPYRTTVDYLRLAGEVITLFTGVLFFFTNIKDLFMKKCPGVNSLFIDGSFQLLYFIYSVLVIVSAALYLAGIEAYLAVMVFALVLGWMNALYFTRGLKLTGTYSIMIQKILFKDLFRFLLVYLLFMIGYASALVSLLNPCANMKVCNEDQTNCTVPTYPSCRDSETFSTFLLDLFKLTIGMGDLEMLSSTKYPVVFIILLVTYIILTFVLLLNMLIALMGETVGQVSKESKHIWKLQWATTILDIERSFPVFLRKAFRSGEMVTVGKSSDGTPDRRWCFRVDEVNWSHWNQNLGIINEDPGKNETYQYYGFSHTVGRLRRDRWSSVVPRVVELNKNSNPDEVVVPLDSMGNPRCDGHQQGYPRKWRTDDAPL
The assay can be described thus: Test Example 1: TRPV4 inhibitory activity (IC50 value), 4α-PDD stimulation, Fluo4 calcium fluorescence (FLIPR TETRA). To be noted: 1 μmol/L 4α-PDD, Fluo4-AM, read-out: TRPV4 inhibitory activity (IC50 value). The format is cell-based.
Usually IC50 stands for the point on the concentration scale where inhibition reaches its midpoint. `Cc1nc(CO)sc1-c1csc(NC(=O)C2CN(c3ccc(C(F)(F)F)cn3)C2)n1` [Compound I-297]: the concentration for half-maximal inhibition (IC50) was found to be 22 nM.

As to `Cc1nc(C)c(-c2csc(NC(=O)Cc3ccc(S(=O)(=O)N4CCCCC4)cc3)n2)s1` [Compound I-156], the IC50 was 30 nM.

Staying with this assay, now noted: Test Example 1, 4α-PDD stimulation, read-out: Test 1 IC50.
With `Cc1nc(C)c(-c2nc(NC(=O)Cc3c(F)cccc3F)sc2C)s1` [Compound I-72], the IC50 lay in the range of 1000 to 8000 nM. Consider `O=C(Nc1nc(-c2sc(CO)nc2CCCO)cs1)C1CN(c2ccc(C(F)(F)F)cc2)C1` [Compound I-348], for which the IC50 was below 100 nM.

As to `Cc1nc(CO)sc1-c1csc(NC(=O)/C=C/c2ccccc2)n1` [Compound I-462], the IC50 lay within 100 to 1000 nM. For `Cc1nc(CNC(N)=O)sc1-c1csc(NC(=O)Cc2ccc(S(=O)(=O)C(F)(F)F)cc2)n1` [Compound I-398], the IC50 fell in the range of 1000 to 8000 nM. Still for that read-out and setting: with `Cc1nc(C)c(-c2nc(NC(=O)Cc3c(F)cccc3F)sc2-c2cscn2)s1` [Compound I-61] the figure was 100 to 1000 nM; with `Cc1nc(C)c(-c2csc(NC(=O)C3CC(c4ccccc4)=NO3)n2)s1` (stereo not shown) [Compound I-206], 100 to 1000 nM. Consider `Cc1nc(C)c(-c2nc(NC(=O)Cc3c(F)cccc3F)sc2-c2ccc(O)cc2)s1` [Compound I-69], for which the IC50 lay in the range of 1000 to 8000 nM. Consider `Cc1nc(C)c(-c2csc(NC(=O)Cc3cccc(S(=O)(=O)NCC(F)(F)F)c3)n2)s1` [Compound I-502], for which the IC50 is below 100 nM. Turning to `Cc1nc(C)c(-c2csc(NC(=O)Cn3cc(C(F)(F)F)cn3)n2)s1` [Compound I-124], the IC50 was below 100 nM. `COC(=O)c1cccc(CC(=O)Nc2nc(-c3sc(C)nc3C)cs2)n1` [Compound I-509]: the IC50 lay in the range of 100 to 1000 nM.

Take `NCc1nc(CO)sc1-c1csc(NC(=O)C2CN(c3ccc(C(F)(F)F)cc3)C2)n1` [Compound I-340]: the IC50 lay in the range of 100 to 1000 nM. Take `Cc1nc(C)c(-c2nc(NC(=O)Cc3c(F)cccc3F)sc2-c2ccccc2O)s1` [Compound I-64]: the IC50 lay within 100 to 1000 nM. Turning to `Cc1nc(C)c(-c2csc(NC(=O)Cc3cccc(OC(F)(F)F)c3)n2)s1` [Compound I-100], the half-maximal inhibitory concentration (IC50) was below 100 nM.

With `Cc1nc(CC#N)sc1-c1csc(NC(=O)Cc2ccc(S(=O)(=O)C(F)(F)F)cc2)n1` [Compound I-392], the IC50 was below 100 nM.

For `Cc1nc(C)c(-c2csc(NC(=O)[C@@H]3C[C@H](c4ccccc4)CN3C(=O)C(F)(F)F)n2)s1` [Compound I-271], the IC50 is below 100 nM. The same measure, in the same setting: with `CC(=O)c1nc(C)sc1-c1csc(NC(=O)Cc2c(F)cccc2F)n1` [Compound I-129] the figure was 100 to 1000 nM. As to `O=C(Nc1nc(-c2sc(CO)nc2CO)cs1)[C@@H]1C[C@@H](c2ccccc2)CN1S(=O)(=O)C(F)(F)F` [Compound I-338], the half-inhibitory concentration (IC50) was 100 to 1000 nM. With `COC(=O)NCc1nc(C)c(-c2csc(NC(=O)Cc3ccc(S(=O)(=O)C(F)(F)F)cc3)n2)s1` [Compound I-400], the half-inhibitory concentration (IC50) was 100 to 1000 nM.

For the molecule `Cc1nc(C)c(-c2csc(NC(=O)Cc3ccc(S(=O)(=O)N(C)c4ccccc4Cl)cc3)n2)s1` [Compound I-162], the half-maximal inhibitory concentration (IC50) is below 100 nM.

In the case of `Cc1nc(C)c(-c2csc(NC(=O)[C@@H]3C[C@H](Oc4ccc(Cl)cc4)CN3C(=O)OC(C)(C)C)n2)s1` [Compound I-293], the IC50 is below 100 nM.

For `Cc1nc(C)c(-c2csc(NC(=O)Cn3cc(-c4ccc(S(C)(=O)=O)cc4)cn3)n2)s1` [Compound I-151], the IC50 fell in the range of 100 to 1000 nM. Turning to `NC(=O)c1nc(CO)c(-c2csc(NC(=O)[C@H]3C[C@@H](OCc4ccc(C(F)(F)F)cc4)C3)n2)s1` [Compound I-551], the IC50 is 100 to 1000 nM.

Turning to `Cc1nc(C)c(-c2csc(NC(Cc3ccc(Cl)cc3)C(=O)Nc3ccccc3)n2)s1` (racemic) [II-44], the half-maximal inhibitory concentration (IC50) was 1000 to 8000 nM. Take `Cc1nc(CO)sc1-c1csc(NC(=O)C2CC(OCc3cccnc3)C2)n1` (stereo not shown) [Compound I-247]: the half-maximal inhibitory concentration (IC50) was in the range of 1000 to 8000 nM. On the same count and under the same terms, with `Cc1nc(CO)sc1-c1csc(NC(=O)C2CN(S(=O)(=O)CCC(F)(F)F)C2)n1` [Compound I-433] the figure was 100 to 1000 nM; with `Cc1nc(CO)sc1-c1csc(NC(=O)Cc2c(F)cccc2F)n1` [Compound I-76], below 100 nM.

Regarding `Cc1nc(C(F)F)sc1-c1csc(NC(=O)Cn2cc(Cl)cn2)n1` [Compound I-110], the IC50 lay in the range of 100 to 1000 nM.

As for `O=C(Nc1nc(-c2sc(CO)nc2CO)cs1)[C@@H]1C[C@@H](c2ccccc2)CN1C(=O)OCC(F)(F)F` [Compound I-336], the IC50 lay in the range of 100 to 1000 nM. Regarding `Cc1nc(CO)sc1-c1csc(NC(=O)C2CN(c3ccc(C(F)(F)F)cn3)C2)n1` [Compound I-297], the 50% inhibitory concentration (IC50) is below 100 nM. In the case of `Cc1nc(C(C)O)sc1-c1csc(NC(=O)[C@H]2C[C@@H](F)C2)n1` (mixture of isomers) [Compound I-299], the IC50 was 1000 to 8000 nM. Consider `COCCOc1cc(CC(=O)Nc2nc(-c3sc(C)nc3C)cs2)cc(C(=O)N[C@H](c2ccccc2)C(F)(F)F)c1` [Compound I-513], for which the IC50 is below 100 nM.

Regarding `Cc1nc(CO)sc1-c1csc(NC(=O)C2CC(=O)C2)n1` [Compound I-267], the concentration for half-maximal inhibition (IC50) is 1000 to 8000 nM.

As for `Cc1nc(C)c(-c2csc(NC(=O)[C@H]3C[C@H](c4ccccc4)CN3)n2)s1` [Compound I-192], the IC50 was in the range of 1000 to 8000 nM. Same read-out and setting: with `Cc1nc(C)c(-c2csc(NC(=O)C3Cc4ccccc4N3C)n2)s1` (stereo not shown) [Compound I-175] the figure was 100 to 1000 nM. On to `Cc1nc(CO)sc1-c1csc(NC(=O)C2CC(c3ccccc3)C2)n1` (stereo not shown) [Compound I-547], for which the half-maximal inhibitory concentration (IC50) is below 100 nM.

For the molecule `Cc1nc(C(C)O)sc1-c1csc(NC(=O)Cc2ccc(S(=O)(=O)C(F)(F)F)cc2)n1` (racemic) [Compound I-287], the IC50 was below 100 nM. Take `CCOC(=O)c1nc(C)sc1-c1csc(NC(=O)Cc2c(F)cccc2F)n1` [Compound I-539]: the IC50 is below 100 nM.

Turning to `Cc1nc(C)c(-c2csc(NC(=O)Cn3cc(C#N)cn3)n2)s1` [Compound I-123], the IC50 is 1000 to 8000 nM. As to `Cc1nc(C)c(-c2csc(NC(=O)Cc3ccc(S(=O)(=O)C(C)C)cc3)n2)s1` [Compound I-122], the IC50 fell in the range of 100 to 1000 nM. On to `Cc1nc(CO)sc1-c1csc(NC(=O)[C@H]2C[C@H](C(F)F)C2)n1` [Compound I-552], for which the half-inhibitory concentration (IC50) is 100 to 1000 nM. Still for that read-out and setting: with `Cc1nc(C)c(-c2csc(NC(=O)[C@@H]3C[C@H](c4ccccc4)CN3)n2)s1` [Compound I-179] the figure was 1000 to 8000 nM; with `Cc1[nH]c(=O)sc1-c1csc(NC(=O)Cc2c(F)cccc2F)n1` [Compound I-93], 100 to 1000 nM; with `Cc1nc(C)c(-c2nsc(NC(=O)Cc3ccc(C(O)C(F)(F)F)cc3)n2)s1` (stereo not shown) [Compound I-544], 1000 to 8000 nM. Take `Cc1nc(C)c(-c2csc(NC(=O)Cc3ccc(S(=O)(=O)N4CCCCC4)cc3)n2)s1` [Compound I-156]: the 50% inhibitory concentration (IC50) is below 100 nM. In the case of `CC(OC(N)=O)c1nc(CO)sc1-c1csc(NC(=O)Cc2ccc(S(=O)(=O)C(F)(F)F)cc2)n1` (single isomer, unassigned) [Compound I-478], the IC50 was in the range of 100 to 1000 nM. For `Cc1nc(C(F)F)sc1-c1csc(NC(=O)C2CC2)n1` [Compound I-109], the 50% inhibitory concentration (IC50) was in the range of 1000 to 8000 nM. Still for that read-out and setting: with `Cc1nc(C)c(-c2csc(NC(=O)Cc3ccccc3[N+](=O)[O-])n2)s1` [Compound I-541] the figure was below 100 nM; with `Cc1nc(C)c(-c2csc(NC(=O)C3Cc4ccccc4N3)n2)s1` (stereo not shown) [Compound I-177], 100 to 1000 nM; with `Cc1nc(C)c(-c2csc(NC(=O)Cc3cc(OCC4CC4)cc(C(=O)N[C@H](c4ccccc4)C(F)(F)F)c3)n2)s1` [Compound I-522], below 100 nM. Take `Cc1nc(C)c(-c2csc(NC(=O)CC3CN(Cc4ccc(C(F)(F)F)cc4)C3)n2)s1` [Compound I-491]: the IC50 lay in the range of 1000 to 8000 nM.

Turning to `O=C(Nc1nc(-c2sc(CO)nc2CO)cs1)[C@H]1C[C@@H](NCc2ccc(C(F)(F)F)cc2)C1` [Compound I-317], the IC50 was in the range of 1000 to 8000 nM. For the molecule `Cc1nc(C)c(-c2csc(NC(=O)CC3CN(c4ncc(C(F)(F)F)cn4)C3)n2)s1` [Compound I-401], the IC50 was in the range of 100 to 1000 nM. Regarding `Cc1nc(CO)sc1-c1csc(NC(=O)OC(C)(C)C)n1` [Compound I-30], the half-inhibitory concentration (IC50) lay within 1000 to 8000 nM. On the same count and under the same terms, with `Cc1nc(C)c(-c2nc(NC(=O)Cc3c(F)cccc3F)sc2-c2ccsc2)s1` [Compound I-538] the figure was 1000 to 8000 nM; with `Cc1nc(C)c(-c2nc(NC(=O)Cc3c(F)cccc3F)sc2C2=CCCCC2)s1` [Compound I-537], 1000 to 8000 nM. On the same count and under the same terms, with `CO[C@H]1C[C@H](C(=O)Nc2nc(-c3sc(C)nc3C)cs2)C1` [Compound I-268] the figure was 100 to 1000 nM. Turning to `Cc1nc(C)c(-c2csc(NCCc3ccc(Cl)cc3)n2)s1` [II-36], the IC50 was below 100 nM. On the same count and under the same terms, with `CCOC(=O)N1C[C@H](c2ccccc2)C[C@H]1C(=O)Nc1nc(-c2sc(CO)nc2C)cs1` [Compound I-313] the figure was below 100 nM; with `Cc1nc(C(=O)NCCO)c(-c2csc(NC(=O)Cc3c(F)cccc3F)n2)s1` [Compound I-182], 1000 to 8000 nM; with `COc1cc(CC(=O)Nc2nc(-c3sc(C)nc3C)cs2)cc(C(=O)NC(C)(C)C(F)(F)F)c1` [Compound I-528], below 100 nM. In the case of `Cc1nc(C)c(-c2csc(N(Cc3ccc(C(F)(F)F)cc3)C(=O)C3CN(O)C3)n2)s1` [Compound I-374], the half-maximal inhibitory concentration (IC50) was in the range of 1000 to 8000 nM. Turning to `N#CCc1nc(CO)sc1-c1csc(NC(=O)C2CN(c3ccc(C(F)(F)F)cc3)C2)n1` [Compound I-334], the IC50 was below 100 nM. `Cc1nc(C)c(-c2csc(NC(=O)Cc3cc(OCCN(C)C)cc(C(=O)N[C@H](c4ccccc4)C(F)(F)F)c3)n2)s1` [Compound I-514]: the half-maximal inhibitory concentration (IC50) was 1000 to 8000 nM.

Consider `Cc1nc(CO)oc1-c1csc(NC(=O)Cc2ccc(S(=O)(=O)C(F)(F)F)cc2)n1` [Compound I-380], for which the IC50 was 100 to 1000 nM. In the case of `CC(OC(N)=O)c1nc(CO)sc1-c1csc(NC(=O)Cc2ccc(S(=O)(=O)C(F)(F)F)cc2)n1` (racemic) [Compound I-474], the IC50 was 100 to 1000 nM. `CC(=O)NCc1nc(C)sc1-c1csc(NC(=O)Cc2ccc(S(=O)(=O)C(F)(F)F)cc2)n1` [Compound I-471]: the half-inhibitory concentration (IC50) is below 100 nM. `Cc1nc(C(C)O)sc1-c1csc(NC(=O)C2CCN(c3ccccc3)C2)n1` (stereo not shown) [Compound I-295]: the IC50 lay in the range of 100 to 1000 nM. Still for that read-out and setting: with `Cc1nc(C)c(-c2csc(NC(=O)Cn3cc(-c4cccc(N(C)C)c4)cn3)n2)s1` [Compound I-149] the figure was below 100 nM.
